Data: US4221787A, “Esteramide prodrugs of anti-inflammatory corticosteroids” (INTERx Research Corporation, priority 1979, dated 1980)

Key:
[1] = system: burned rat ear; assay: Effect of selected steroid derivatives on ear burn inflammation; assay type: in vivo, Sprague-Dawley rats; conditions: 0.03 M steroid in isopropyl myristate, rat ear burned at 51.7° C. for 10 seconds, ears weighed after 16 hours, 5 rats
Procedure: The pressure of the cylinder on the rat ear was reproduced by using only the weight of the top brass cylinder (2.5 lbs) to apply the pressure. The burned rat ear was then immediately treated on both sides with […] of vehicle (isopropyl myristate) or 0.03 M steroid in the vehicle. After 16 hours, both ears of the rat were removed along anatomical guidelines and weighed.
The increase of weight caused by the burn was determined by subtracting the weight of the untreated left ear from the weight of the treated right ear.
The percent inhibition of inflammation was then determined as the weight increase of burned rat ears treated only with vehicle minus the weight increase of burned rat ears treated with vehicle containing the steroid divided by the weight increase of burned rat ears treated only with vehicle times one hundred.

[2] = system: mouse skin; conditions: in vivo
Procedure: Effect of Selected Steroid Derivatives on Skin Thickness A modification of the method of Smith et al, Arch Derrmatol, 112, 1115 (1976), was used. Hairless mice were used instead of rats. The steroids were tested at 0.03 M in propyleneglycol suspension except for hydrocortisone 17-butyrate which was soluble. Each suspension (50 μl) was applied to the backs of 9 mice daily. On the twenty-ninth day of the experiment, the mice were sacrificed with carbon dioxide and the double fold skin thickness was immediately measured using an Ames micrometer accurate to 0.0001 inch at a pressure of 28 lb/cm^2. The measurement was taken after three minutes had elapsed from the time the mouse skin was placed in the micrometer.

[3] = system: thymus glands; assay: Effect of selected steroid derivatives on thymus weight (systemic effect); assay type: in vivo, Sprague-Dawley rats; conditions: 48 hours after burn and application of 0.03 M steroid in isopropyl myristate; lower weight = more pronounced systemic effect; Control 233.5 ± 11.5
Procedure: A modification of the method of Tonelli et al, Endocrinology, 77, 625 (1965), was used. […] The rats were first anesthetized with phenobarbitol, then the right ear of each rat was burned on both side for 10 seconds between two vertically oriented brass cylinders heated with water at 51.7° C. from a constant temperature bath. The pressure of the cylinder on the rat ear was reproduced by using only the weight of the top brass cylinder (2.5 lbs) to apply the pressure. The burned rat ear was then immediately treated on both sides with […] of vehicle (isopropyl myristate) or 0.03 M steroid in the vehicle. After 16 hours, both ears of the rat were removed along anatomical guidelines and weighed.
Effect of Selected Steroid Derivatives on Thymus Weight
The rats used in the ear burn test described in Example 18 were revived and 48 hours after the burn and application of the steroid, they were sacrificed with carbon dioxide. Then their thymus glands were removed and weighed. The lower the weight of thymus, the more pronounced the systemic effect of the steroid.

% Decrease from Control (double fold skin thickness) [2] [%] | Thymus Weight [3] [mg] | Compound | % Inhibition (of ear burn inflammation) [1] [%]
 |  | CCCC(=O)O[C@]1(C(=O)COC(=O)CCC(=O)N(CC)CC)CC[C@H]2[C@@H]3CCC4=CC(=O)CC[C@]4(C)[C@H]3[C@@H](O)C[C@@]21C [4-Pregnene-11β-Hydroxy-17α-butyryloxy-21-(N,N-diethylsuccinamyloxy)-3,20-dione] | 20.4
37.5 | 177.2 ± 11.0 | CC(=O)OCC(=O)[C@@]1(O)CC[C@H]2[C@@H]3CCC4=CC(=O)CC[C@]4(C)[C@H]3[C@@H](O)C[C@@]21C [Hydrocortisone 21-acetate] | 31.0
 |  | C[C@]12CCC(=O)C=C1CC[C@@H]1[C@@H]2[C@@H](O)C[C@@]2(C)[C@H]1CC[C@]2(O)C(=O)COC(=O)[C@@H]1CCC(=O)N1 [4-Pregnene-11β,17α-dihydroxy-21-(2'-oxopyrrolidin-5'-yl)carbonyloxy-3,20-dione] | 50.5
45.8 | 65.3 ± 8.1 | CC1(C)O[C@@H]2C[C@H]3[C@@H]4CCC5=CC(=O)C=C[C@]5(C)[C@@]4(F)[C@@H](O)C[C@]3(C)[C@]2(C(=O)CO)O1 [Triamcinolone acetonide] | 53.8
39.2 | 149.6 ± 11.7 | CCCC(=O)O[C@]1(C(=O)CO)CC[C@H]2[C@@H]3CCC4=CC(=O)CC[C@]4(C)[C@H]3[C@@H](O)C[C@@]21C [Hydrocortisone 17-butyrate] | 28.9

Compound | % Decrease from Control (double fold skin thickness) [2] [%] | Thymus Weight [3] [mg] | % Inhibition (of ear burn inflammation) [1] [%]
CCN(CC)C(=O)CCC(=O)OCC(=O)[C@@]1(O)CC[C@H]2[C@@H]3CCC4=CC(=O)CC[C@]4(C)[C@H]3[C@@H](O)C[C@@]21C [4-Pregnene-11β,17α-dihydroxy-21-(N,N-diethylsuccinamyloxy)-3,20-dione] | 26.7 |  | 49.2
C[C@]12CCC(=O)C=C1CC[C@@H]1[C@@H]2[C@@H](O)C[C@@]2(C)[C@H]1CC[C@]2(O)C(=O)CO [Hydrocortisone] |  | 190.3 ± 29.7 | 3.3
